Experimental data: PubChem BioAssay (NCI)
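Growth conditions: 96-well plates. Treatment: test compound, 48 hours, 5 concentrations. Analysis: linear interpolation between bracketing concentrations; unreached endpoints set to highest concentration. The concentration for full growth arrest is given as TGI.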

What was measured:
Experiment in all cases: growth of human tumour cells (NCI), 48 h
KM12 colon = tested on: KM12 colon
COLO 205 colon = tested on: COLO 205 colon
SNB-19 CNS = tested on: SNB-19 CNS
BT-549 breast = tested on: BT-549 breast
MDA-MB-231 breast = tested on: MDA-MB-231 breast
CAKI-1 renal = tested on: CAKI-1 renal
SF-295 CNS = tested on: SF-295 CNS
U251 CNS = tested on: U251 CNS
SF-268 CNS = tested on: SF-268 CNS
786-0 renal = tested on: 786-0 renal
HCT-15 colon = tested on: HCT-15 colon
UACC-257 melanoma = tested on: UACC-257 melanoma
NCI-H23 lung = tested on: NCI-H23 lung
TK-10 renal = tested on: TK-10 renal
UO-31 renal = tested on: UO-31 renal
LOX IMVI melanoma = tested on: LOX IMVI melanoma
IGROV1 ovarian = tested on: IGROV1 ovarian
HCC-2998 colon = tested on: HCC-2998 colon
SK-OV-3 ovarian = tested on: SK-OV-3 ovarian
HOP-62 NSCLC = tested on: HOP-62 NSCLC
NCI-H226 lung = tested on: NCI-H226 lung
MDA-MB-435 = tested on: MDA-MB-435
A498 renal = tested on: A498 renal
SF-539 CNS = tested on: SF-539 CNS
SK-MEL-5 melanoma = tested on: SK-MEL-5 melanoma
HOP-92 NSCLC = tested on: HOP-92 NSCLC
K-562 leukemia = tested on: K-562 leukemia
SNB-75 CNS = tested on: SNB-75 CNS
EKVX NSCLC = tested on: EKVX NSCLC
HL-60(TB) leukemia = tested on: HL-60(TB) leukemia
OVCAR-8 ovarian = tested on: OVCAR-8 ovarian
MALME-3M melanoma = tested on: MALME-3M melanoma
UACC-62 melanoma = tested on: UACC-62 melanoma
RPMI-8226 leukemia = tested on: RPMI-8226 leukemia
SN12C renal = tested on: SN12C renal
DU-145 prostate = tested on: DU-145 prostate
HS 578T breast = tested on: HS 578T breast
MCF7 breast = tested on: MCF7 breast
SK-MEL-28 melanoma = tested on: SK-MEL-28 melanoma
OVCAR-4 ovarian = tested on: OVCAR-4 ovarian
A549 NSCLC = tested on: A549 NSCLC
NCI-H522 lung = tested on: NCI-H522 lung
M14 melanoma = tested on: M14 melanoma
SW-620 colon = tested on: SW-620 colon
NCI-H460 lung = tested on: NCI-H460 lung
SK-MEL-2 melanoma = tested on: SK-MEL-2 melanoma
OVCAR-3 ovarian = tested on: OVCAR-3 ovarian
ACHN renal = tested on: ACHN renal
HT29 colon = tested on: HT29 colon
PC-3 prostate = tested on: PC-3 prostate
MDA-N = tested on: MDA-N
HCT-116 colon = tested on: HCT-116 colon
T-47D breast = tested on: T-47D breast
OVCAR-5 ovarian = tested on: OVCAR-5 ovarian
NCI/ADR-RES ovarian = tested on: NCI/ADR-RES ovarian
RXF 393 renal = tested on: RXF 393 renal
SR leukemia = tested on: SR leukemia
CCRF-CEM leukemia = tested on: CCRF-CEM leukemia
MOLT-4 leukemia = tested on: MOLT-4 leukemia

Compound `CC(C)NC(=O)CN1CCN(c2c(O)c3c(c(O)c2Cl)C(=O)C=CC3=O)CC1` has a TGI (KM12 colon) of 18.4 µM, a TGI (COLO 205 colon) of 2.89 µM and a TGI (SNB-19 CNS) of 26.9 µM. It also gave a TGI (BT-549 breast) of 2.85 µM, a TGI (MDA-MB-231 breast) of 4.26 µM and a TGI (CAKI-1 renal) of 5 µM. It also gave a TGI (SF-295 CNS) of 19.7 µM, a TGI (U251 CNS) of 10.3 µM and a TGI (SF-268 CNS) of 4.04 µM. For the same compound, the TGI (786-0 renal) was 6.14 µM, the TGI (HCT-15 colon) was 3.19 µM and the TGI (UACC-257 melanoma) was 3.25 µM. It also gave a TGI (NCI-H23 lung) of 3.02 µM, a TGI (TK-10 renal) of 4.27 µM and a TGI (UO-31 renal) of 2.64 µM. It also gave a TGI (LOX IMVI melanoma) of 1.92 µM, a TGI (IGROV1 ovarian) of 4.66 µM and a TGI (HCC-2998 colon) of 10 µM. The TGI (SK-OV-3 ovarian) was 24.3 µM, the TGI (HOP-62 NSCLC) was 18.6 µM and the TGI (NCI-H226 lung) was 41.5 µM. For the same compound, the TGI (MDA-MB-435) was 3.38 µM, the TGI (A498 renal) was 7.29 µM and the TGI (SF-539 CNS) was 3.66 µM. The TGI (SK-MEL-5 melanoma) was 3.45 µM, the TGI (HOP-92 NSCLC) was 4.16 µM and the TGI (K-562 leukemia) was > 100 µM. The TGI (SNB-75 CNS) was 11.3 µM, the TGI (EKVX NSCLC) was 12 µM and the TGI (HL-60(TB) leukemia) was 0.642 µM. It also gave a TGI (OVCAR-8 ovarian) of 3.81 µM, a TGI (MALME-3M melanoma) of 2.7 µM and a TGI (UACC-62 melanoma) of 3.22 µM. For the same compound, the TGI (RPMI-8226 leukemia) was 7.27 µM, the TGI (SN12C renal) was 3.28 µM and the TGI (DU-145 prostate) was 7.31 µM. The TGI (HS 578T breast) was 6.42 µM, the TGI (MCF7 breast) was 3.47 µM and the TGI (SK-MEL-28 melanoma) was 3.17 µM. The TGI (OVCAR-4 ovarian) was 3.12 µM, the TGI (A549 NSCLC) was 20.3 µM and the TGI (NCI-H522 lung) was 3.33 µM. It also gave a TGI (M14 melanoma) of 2.93 µM, a TGI (SW-620 colon) of 1.92 µM and a TGI (NCI-H460 lung) of 22.1 µM. It also gave a TGI (SK-MEL-2 melanoma) of 3.1 µM, a TGI (OVCAR-3 ovarian) of 2.97 µM and a TGI (ACHN renal) of 4.9 µM. The TGI (HT29 colon) was 2.58 µM, the TGI (PC-3 prostate) was 4.75 µM and the TGI (MDA-N) was 3.43 µM. The TGI (HCT-116 colon) was 2.61 µM, the TGI (T-47D breast) was 3.67 µM and the TGI (OVCAR-5 ovarian) was 6.54 µM. The TGI (NCI/ADR-RES ovarian) was 10.7 µM and the TGI (RXF 393 renal) was 2.92 µM.

`CC(C(O)c1ccccc1)C(O)(C(F)(F)F)C(F)(F)F` (centres undefined) was tested, and the TGI (KM12 colon) was > 100 µM, the TGI (COLO 205 colon) was > 100 µM and the TGI (SR leukemia) was > 100 µM. For the same compound, the TGI (SNB-19 CNS) was > 100 µM, the TGI (MDA-MB-231 breast) was > 100 µM and the TGI (CAKI-1 renal) was > 100 µM. For the same compound, the TGI (SF-295 CNS) was > 100 µM, the TGI (U251 CNS) was > 100 µM and the TGI (SF-268 CNS) was > 100 µM. The TGI (786-0 renal) was > 100 µM, the TGI (HCT-15 colon) was > 100 µM and the TGI (UACC-257 melanoma) was > 100 µM. For the same compound, the TGI (NCI-H23 lung) was > 100 µM, the TGI (TK-10 renal) was > 100 µM and the TGI (CCRF-CEM leukemia) was > 100 µM. For the same compound, the TGI (UO-31 renal) was > 100 µM, the TGI (LOX IMVI melanoma) was > 100 µM and the TGI (IGROV1 ovarian) was > 100 µM. The TGI (HCC-2998 colon) was > 100 µM, the TGI (SK-OV-3 ovarian) was > 100 µM and the TGI (HOP-62 NSCLC) was > 100 µM. For the same compound, the TGI (NCI-H226 lung) was > 100 µM, the TGI (MDA-MB-435) was > 100 µM and the TGI (A498 renal) was > 100 µM. The TGI (SF-539 CNS) was > 100 µM, the TGI (SK-MEL-5 melanoma) was > 100 µM and the TGI (HOP-92 NSCLC) was > 100 µM. The TGI (K-562 leukemia) was > 100 µM, the TGI (SNB-75 CNS) was > 100 µM and the TGI (EKVX NSCLC) was > 100 µM. For the same compound, the TGI (HL-60(TB) leukemia) was > 100 µM, the TGI (OVCAR-8 ovarian) was > 100 µM and the TGI (MALME-3M melanoma) was > 100 µM. For the same compound, the TGI (UACC-62 melanoma) was > 100 µM, the TGI (RPMI-8226 leukemia) was > 100 µM and the TGI (SN12C renal) was > 100 µM. For the same compound, the TGI (DU-145 prostate) was > 100 µM, the TGI (HS 578T breast) was > 100 µM and the TGI (MCF7 breast) was > 100 µM. The TGI (MOLT-4 leukemia) was > 100 µM, the TGI (SK-MEL-28 melanoma) was > 100 µM and the TGI (OVCAR-4 ovarian) was > 100 µM. The TGI (A549 NSCLC) was > 100 µM, the TGI (NCI-H522 lung) was > 100 µM and the TGI (M14 melanoma) was > 100 µM. The TGI (SW-620 colon) was > 100 µM, the TGI (NCI-H460 lung) was > 100 µM and the TGI (SK-MEL-2 melanoma) was > 100 µM. For the same compound, the TGI (OVCAR-3 ovarian) was > 100 µM, the TGI (ACHN renal) was > 100 µM and the TGI (HT29 colon) was > 100 µM. The TGI (PC-3 prostate) was > 100 µM, the TGI (MDA-N) was > 100 µM and the TGI (HCT-116 colon) was > 100 µM. For the same compound, the TGI (T-47D breast) was > 100 µM, the TGI (OVCAR-5 ovarian) was > 100 µM and the TGI (NCI/ADR-RES ovarian) was > 100 µM. The TGI (RXF 393 renal) was > 100 µM.
